Results as given in paper PMC10009108, “Design, synthesis and screening of indole acetic acid-based tri-azo moieties as antioxidants, anti-microbial and cytotoxic agents” (Frontiers in Pharmacology, 2023).
Values after ≈ are worked out from the molar mass of the structure shown.

Legend:
[1] = Total antioxidant capacity (TAC assay); conditions: rank among the synthetic compounds
Procedure: This evaluation was based on the protocol by ([Bibi et al., 2011]). This mechanism’s key point is reducing Mo (VI) to Mo (V). A solution consisting of 4 mM Ammonium molybdate, 28 mM SodiumPhosphate, and 0.6 M Sulphuric acid is utilized, which forms Phosphate Molybdenum Complex which is green in color and gives absorption = […]. […] of the sample is added to […] of reagent, which is incubated at 95°C for one and a half hours and cooled to 25°C.
The antioxidant potential of test compounds was estimated by TAC &TRP assays. The spectrophotometric method was used to analyze the formation of the green-colored phosphomolibdenum compound. […] The findings are depicted in Figure 6.

[2] = test system: Bacillus subtilis (ATCC-6633); test: Antibacterial assay, micro broth dilution; format: cell-based; set-up: key to Antibacterial activity, Bacillus subtilis: Activity: Active = Bacterial activity; --- = no activity; conditions: 25 μg/mL
Source text: The micro broth dilution method was used to establish the antibacterial potential of test samples against Staphylococcus aureus (ATCC-6538), Bacillus subtilis (ATCC-6633), Escherichia coli (ATCC-25922), Klebsiella pneumoniae (ATCC-1705), and Pseudomonas aeruginosa (ATCC-15442) and for the resistant strains of MRSA Staphylococcus aureus, P. aeruginosa and Escherichia coli. The procedure used is described by ([Sarker et al., 2007]). Bacterial inoculum was formed under aseptic conditions keeping the density near 5 × 10^4 CFU/mL in pre-autoclaved nutrient broth. Test samples of an aliquot of 5 µL were shifted to labeled wells of 96 well plates, and after that addition of 195 µL of nutrient broth; was accomplished. After that, a 2-fold serial dilution of every sample was arranged to get final concentrations of 12.5 μg/mL. Then, with the help of a micropipette, 195 µL of bacterial culture of respective strains was poured into each well; further advancement was incubating of plates for 30 min at the temperature of 37°C. […] Incubation of plates was again carried out at 37°C for 1 day, absorbance was noted, and net change in turbidity was the difference between two values of absorbance.
Schiff base tri-azo compounds were investigated for antibacterial potential. […] 6.25 μg/mL for 5b and 5g, and the least, Table 4 3.12 μg/mL was for 5f. […] Substituents with electron-withdrawing attributes, e.g., -NO2, -Cl, -OH on the aromatic ring, assert a great impact on the antibacterial activity of synthetic compounds. It is also observed that an increase in the number of -OH groups tend to enhance the activity ([Hosamani and Shingalapur, 2011]). Due to the difference in cell-wall composition of Gram + ve and -ve bacteria, different compounds show different features towards the same micro-organism ([Goszczyn’ska et al., 2015]).

[3] = Total reducing power (TRP assay); conditions: mean ± SD
Procedure: The process used for TRP was illustrated by ([Bibi et al., 2011]). The […] method is used for 100 μL of each solution, 200 μL Phosphate buffer (0.2 M, pH 6.6), and 250 μL of potassium ferricyanide was mixed and incubated at 50°C for 20 min, to this solution, 10 percent (200 μL) trichloroacetic acid was added, centrifugation was done at 3,000 rpm for 10 min, the supernatant was collected, added with FeCl3 (50 μL), and shifted to the microplate. Absorbance was recorded at 700 nm. Ascorbic acid (100 μg/mL DMSO) is the +ve control for the test, and dimethyl sulfoxide (DMSO) is the blank.
The primary mechanism of TRP assay is based on the compound’s capacity to reduce free radicals, which are generated during the procedure. i.e., Fe^3+ is reduced to Fe^2+ ([Lee et al., 2015]). Various factors determine the antioxidant potential of the compound; a few to explain include the chemical attributes, nature of antioxidant moieties, conditions and mechanism of the reaction, which accounts for the reason for a compound’s activity in one assay and none-to-less response in the other ([Francenia Santos-Sanchez et al., 2019]). However, compounds with hydroxyl and methoxy groups form the bases for potential candidates as an antioxidant ([Rakesh et al., 2015]).

[4] = DPPH free radical scavenging assay; conditions: at 50 μg/mL
Procedure: The DPPH assay was executed via the technique stated by ([Bibi et al., 2011]). DPPH(Diphenyl-1-picrylhydrazyl), a free radical, is bagged to inquire about the antioxidant ability of the synthesized compounds. 10 μL from the synthesized compound (1 mg/mL DMSO) is added to 190 μL DPPH solution., making up the final conc. of 50 μg/mL.
DPPH assay was repeated in triplicate using DMSO as -ve and ascorbic acid as + ve control; findings are expressed as means standard deviation.
It is one of the very commonly utilized methods for the assessment of the antioxidant ability of compounds. DPPH turns from purple to yellow, which indicates the synthetic compound’s scavenging potential ([Rahman et al., 2017]). DMSO and A.A. were used as -ve and +ve control. The antioxidant potential of compounds was assessed at 50 μg/mL, 25 μg/mL, 12.5 μg/mL, and 6.25 μg/mL. […] Production of free radicals is an outcome of regular oxygen consumption in the body; whenever something is missing with the natural antioxidant mechanism, the accumulation of these free radicals may lead to cytotoxic interaction with the body systems and may cause damage to genomic content of various cells, and proteins in the body ([Barbuceanu et al., 2014]). Free radical accumulation is also associated with different diseases, e.g., coronary heart disease, neuronic disorders, diabetes, necrosis, and various tumors ([Ismaili.et al., 2008]). The antioxidant potential of the compound depends upon its reducing power; the introduction of hydroxy and methoxy groups on the Benzene ring led to better reducing power or promising antioxidant activity ([Rakesh et al., 2015]).

[5] = test system: Staphylococcus aureus (ATCC-6538); test: Antibacterial assay, micro broth dilution; format: cell-based; conditions: ATCC6538, read-out: S. aureus MIC

Row | SMILES | activity in the TAC assay (in words) [1] | Antibacterial activity, Bacillus subtilis: Activity [2] | TRP [3] [µg AAE/mg] | %DPPH inhibition (% free radical scavenging) [4] [%] | MIC [5] [µg/mL]
1 | COc1cccc(C=Nn2c(Cc3c[nH]c4ccccc34)n[nH]c2=S)c1 [Compound 5b] | maximum activity | --- | 706.42 ± 0.004 | 32 | 
2 | Oc1cccc(C=Nn2c(Cc3c[nH]c4ccccc34)n[nH]c2=S)c1 [Compound 5a] |  |  | 592.26 ± 0.007 |  | 
3 | O=[N+]([O-])c1ccc(C=Nn2c(Cc3c[nH]c4ccccc34)n[nH]c2=S)cc1 [Compound 5d] |  |  |  | 11.1 | 
4 | Oc1ccc(C=Nn2c(Cc3c[nH]c4ccccc34)n[nH]c2=S)cc1 [Compound 5e] |  | --- | 619.18 ± 0.010 | 8.3 | 
5 | S=c1[nH]nc(Cc2c[nH]c3ccccc23)n1N=Cc1ccc(Cl)cc1 [Compound 5c] |  |  |  | 11.1 | 
6 | S=c1[nH]nc(Cc2c[nH]c3ccccc23)n1N=Cc1cccc(Cl)c1 [Compound 5f] |  | --- |  |  | 25 (≈ 68 µM)
7 | COc1cc(C=Nn2c(Cc3c[nH]c4ccccc34)n[nH]c2=S)cc(OC)c1OC [Compound 5g] |  | --- | 642.67 ± 0.001 |  | 25 (≈ 59 µM)
